Laboratory results as given in patent US7772209B2, “Antifolate combination therapies” (Eli Lilly and Company, priority 2000, dated 2010).

Columns and labels:
[1] = Body weight as general measure of toxicity in MX-1 tumor-bearing nude mice
Experimental: (§1) The animals were maintained on sterilized standard lab chow ad libitum and sterilized water ad libitum. The human MX-1 tumor cells (5×10^6) obtained from donor tumors were implanted subcutaneously in a thigh of female nude mice 8- to 10-weeks old. Beginning on day 7 post tumor cell implantation, the animals were treated with ALIMTA (100 mg/kg or 150 mg/kg) once daily on days 7 through 11 and 14 through 18 by intraperitoneal injection alone or along with folic acid (6 mg/kg or 60 mg/kg) and/or vitamin B12 (165 mg/kg) by intraperitoneal injection on the same schedule.
(§2) Tumor response was monitored by tumor volume measurements twice weekly over the course of the experiment. Toxicity was monitored by body weight measurements made at the same time as the tumor volume measurements. Tumor growth delay was the difference in days for the treated and the controls tumors to reach 1000 mm^3.
Body weight was used as a general measure of toxicity for each of the treatment regimens. The body weight loss pattern reflected the treatment regimens with weight decrease during the treatment times of days 7 through 11 and 14 through 18 with some weight recovery during the intervening two days. The weight loss due to ALITMA was dose dependent but overall minor (3%).

[2] = Clinical response to chemotherapy in chemonaive patients; format: in vivo, human; conditions: responders out of group size
Source text: Additionally, sixty-two chemonaive patients requiring chemotherapeutic treatment were divided into two groups.

[3] = grade 3/4 toxic events, N = 246, not supplemented
Experimental: One to two weeks prior to administration of ALIMTA urine is collected and blood is drawn from a human subject; and vitamin metabolite levels, methylmalonic acid and homocysteine, are determined. Homocysteine levels are determined in blood by a fluorescent polarization immunoassay kit manufactured by Abbot Laboratories. Methylmalonic acid levels are determined by urine levels using a 24 hour urine collection kit available from Biolab Medical Unit (a United Kingdom company). Additionally urine and blood may be collected one week prior to administration of ALIMTA (after at least 5 days of folic acid supplementation and at least 1 week vitamin B12 supplementation), and up to 4 days prior to every cycle.
For purposes of this study, patients should take oral folic acid daily beginning approximately 1 to 3 weeks before treatment with ALIMTA plus cisplatin or cisplatin alone and continuing daily until discontinuation from study therapy.
Vitamin B12 will be obtained and administered as a 1000 μg intramuscular injection. A vitamin B12 injection must be administered approximately 1 to 3 weeks before treatment with ALIMTA and should be repeated approximately every 9 weeks until the patient discontinues from study therapy.
Folic acid supplementation, 350-600 μg or equivalent should be taken orally daily beginning approximately 1 to 3 weeks prior to the first dose of MTA plus cisplatin and continue daily until the patient discontinues from study therapy. A vitamin B12 injection, 1000 μg, must be given intramuscularly approximately 1 to 3 weeks prior to the first dose of ALIMTA and should be repeated approximately every 9 weeks until the patient discontinues from study therapy.
The data to be compared are: • 1) Patient numbers and baseline demographic data for those supplemented from baseline. • 2) Homocysteine and methylmalonic acid levels, levels at baseline, prior to first dose, prior to second dose, and prior to each therapy cycle depending of the type of cancer under study. • 3) Grade 3 and 4 hematologic toxicity in these fully supplemented patients. • 4) Grade 3 and 4 nonhematologic toxicity in these fully supplemented patients.
Cyanocobalamin is used as the methylmalonic acid lowering agent in these studies.

[4] = system: human MX-1 breast carcinoma; assay: Tumor growth delay in human MX-1 breast carcinoma xenograft in female nude mice; format: in vivo
Experimental: To assess the effect of a methylmalonic acid lowering agent, alone or in combination with folic acid on the antitumor efficacy of an antifolate in a human tumor xenograft model, female nude mice bearing human MX-1 breast carcinoma were treated with ALIMTA alone or along with super-physiologic doses of folic acid or vitamin B12 (cobalamin).
as §1, §2

## Nc1nc2[nH]cc(CCc3ccc(C(=O)N[C@@H](CCC(=O)O)C(=O)O)cc3)c2c(=O)[nH]1 [ALIMTA, pemetrexed disodium]
[1]; mouse, in vivo
  Body weight loss: 3%
[2]
  Patients who responded to the chemotherapy: 1 out of 17
[3]
  Percent of occurrences prior to B12/folic acid treatment: Diarrhea: 6%
  Percent of occurrences prior to B12/folic acid treatment: Hematologic Toxicity/Non-Hematologic Toxicity: 37%
  Percent of occurrences prior to B12/folic acid treatment: Mucositis: 5%
  Percent of occurrences prior to B12/folic acid treatment: Neutropenia: 32%
  Percent of occurrences prior to B12/folic acid treatment: Neutropenia and Diarrhea: 3%
  Percent of occurrences prior to B12/folic acid treatment: Neutropenia and Infection: 2%
  Percent of occurrences prior to B12/folic acid treatment: Neutropenia and Mucositis: 3%
[4]; ALIMTA 100 mg/kg ip once daily days 7-11 and 14-18, alone, time to reach 1000 mm^3 vs controls
  Tumor growth delay: 17 days
[4]; ALIMTA 150 mg/kg ip once daily days 7-11 and 14-18, alone
  Tumor growth delay: 21 days

## Nc1nc2ncc(CNc3ccc(C(=O)N[C@@H](CCC(=O)O)C(=O)O)cc3)nc2c(=O)[nH]1 [Folic acid, folic acid]
[4]; folic acid 6 mg/kg ip alone, same schedule
  Tumor growth delay: 7 days
[4]; folic acid 60 mg/kg ip alone, same schedule
  Tumor growth delay: 12 days

## vitamin B12
[1]; vitamin B12 administration
  Body weight change: did not prevent weight gain
[4]; vitamin B12 165 mg/kg ip alone, same schedule
  Tumor growth delay: 12 days
